# Test results as given in US20260345572A1, “PHARMACEUTICAL FORMULATIONS WITH ACTIVITY INHIBITING HISTONE METHYLTRANSFERASES FOR THE TREATMENT OF NEOPLASTIC DISEASES” (Ente Ospedaliero Specializzato in Gastroenterologia …, priority 2022, published 2026).
# How the values were obtained:
# HT29 cells = test: Cell viability (WST-1); format: cell-based, human; conditions: FIG. 5
# Experimental: (§1) The human cell lines HT29, HCT116, SW480, MDA-MB-231, MDA-MB-468, HGC-27, and PANC1 were cultured in DMEM culture medium, supplemented with 10% fetal bovine serum (FBS); N87, AGS and KATO III were cultured in RPMI culture medium supplemented with 10% FBS; CACO2 were cultured in DMEM culture medium, supplemented with 20% FBS and nonessential amino acids. All cell lines were cultured in the presence of 1% antibiotics (Penicillin and Streptomycin), at 37 °C in an atmosphere of 5% CO2 and always maintained in a subconfluence state.
# (§2) Cell viability analysis was performed by using WST-1 kit (Roche), allowing to measure viable cell metabolic activity. In short, the quantitation of mitochondrial dehydrogenase activity is assessed by soluble tetrazolium salt ([…], colorless) conversion into its corresponding product, formazane (colored). The quantitative assessment of salt conversion into its colored form is then performed by spectrophotometrically calculating absorption at 450 nm. Substrate conversion levels are therefore proportional to enzymatic activity which, in turn, represents a marker of cell viability and proliferation.
# HCT116 cells [1] = test: Cell viability (WST-1); format: cell-based, human; conditions: FIG. 5
# Experimental: as §1, §2
# MCF7 breast cancer cells = test: Synergistic effect, nonviable/apoptotic cell population; format: cell-based, human; conditions: FIG. 9, >1 = synergistic
# Experimental: (§3) Analysis of non-viable cell percentage was carried out by counting live cells and dead cells after staining with 0.01% Trypan Blue, a dye permeating cells only in the condition in which plasma membrane integrity is compromised. In short, after collecting the culture medium and the plate-adhering cells, detached by enzymatic treatment with 1% trypsin/EDTA, the pellet obtained by centrifuging was resuspended in an adequate volume of DPBS and 10 μl of cell suspension were diluted in an equal volume of Trypan blue. The counting was performed with a phase-contrast optical microscope, using a Burker chamber.
# (§4) Analysis of the percentage of cells undergoing programmed death, referred to as apoptosis, was performed by Annexin V assay. The concentrations of live cells, cells in early apoptosis, in total apoptosis and dead cells were measured with Muse Annexin V and Dead Cell Reagent kit (Luminex). 5×10^4 cells/mL were stained with the reagent provided by the kit. After 20 min incubation, fluorescence is read with Guava® Muse® Cell Analyzer. The test was performed on the following cell lines: HCT116, PANC1, SW480, MDA-MB-231, MCF7, AGS.
# AGS gastric cancer cells [2] = test: as above; format: cell-based, human; conditions: FIG. 9, >1 = synergistic
# Experimental: as §3, §4
# [3] = system: MDA-MB-231 breast cancer cells; test: as above; format: cell-based, human; conditions: FIG. 9, >1 = synergistic
# Experimental: as §3, §4
# [4] = system: colorectal cancer stem cells; test: Cancer stem cell viability; format: cell-based, human; conditions: FIG. 3A; EM127 + Oxaliplatin, 5-Fluorouracil or Irinotecan 10 μM
# From the text: (§5) In compliance with Art 170bis, Paragraph 3 C.P.I., it is hereby certified that: • The colorectal cancer stem cells used at the base of the invention object of the present application have been isolated from patients, and the aforementioned cells were obtained following the free and informed consent to their collection and use expressed by the person from whom said material has been collected, under the regulations in force; and • C57BL/6 mice for the AOM/DSS murine model of colorectal cancer were not genetically modified.
# as §2
# [5] = system: PANC1, SW80, AGS, N87, HGC-27 cells; test: Cell death and viability, FIG. 6 panel of cell lines; format: cell-based, human; conditions: 72 h
# Experimental: as §1
# as §2, with “Substrate conversion levels are therefore proportional to enzymatic activity which, in turn, represents a marker of cell viability and proliferation.” left out
# as §4, with “5×10^4 cells/mL were stained with the reagent provided by the kit.” left out, “The test was performed on the following cell lines: HCT116, PANC1, SW480, MDA-MB-231, MCF7, AGS.” left out
# [6] = system: colorectal cancer stem cells; test: Clonogenic assay; format: cell-based, human; conditions: FIG. 3C; EM127 + Oxaliplatin, 5-Fluorouracil or Irinotecan 10 μM
# From the text: as §5
# For the clonogenic assay, previously dissociated colorectal cancer tumorspheres were plated in triplicate using 500 cells per experimental point and resuspended in 0.3% agarose on a 0.5% agarose layer. Subsequently, they were treated with EM127 and chemotherapeutic compounds.
# HCT116 cells [7] = test: Apoptotic cell percentage (Annexin V); format: cell-based, human; conditions: FIG. 1B; EM127 + chemotherapeutic compound (Oxaliplatin, 5-Fluorouracil or Irinotecan, 10 μM)
# Experimental: as §1, §4
# [8] = system: HCT116-derived tumor spheroids; test: LIVE/DEAD viability of tumorspheres; format: cell-based, human; conditions: FIG. 2; EM127 + Oxaliplatin or Irinotecan 10 μM
# Experimental: The tumorspheres deriving from the continuous cell line HCT116 “HCT116-derived tumor spheroids” were obtained by using a suitable DMEM/F12 Advanced culture medium supplemented with 1× Glutamine, 1× Penicillin/streptomycin, 0.6% glucose, 1×B27, 1×N2, 20 ng/ml EGF, 10 ng/ml bFGF, and cultured in media surface-treated to ensure a very low cell adhesion.
# To assess cell viability on HCT116-derived tumorspheres, LIVE/DEAD® Viability/Cytotoxicity Assay kit (Thermo Fisher) was used, allowing to discriminate live cells from dead ones with two probes measuring intracellular enzymatic activity and plasma membrane integrity. Tumorspheres were incubated with the reagent provided by the kit and then visualized with a fluorescence microscope. Live cells are stained with reagent calcein and generate a green fluorescence signal; dead cells are stained with ethidium homodimer, generating a red signal.
# [9] = system: AOM/DSS murine model of colorectal cancer; test: AOM/DSS murine model of colorectal cancer; format: in vivo, C57BL/6 mice; conditions: FIG. 8; EM127 20 mg/kg + Irinotecan 20 mg/kg, intraperitoneally, 14 days; vs Irinotecan alone
# Experimental: C57BL/6 mice were treated intraperitoneally with 12 mg/kg azoxymethane (AOM). Dextran sulfate sodium (DSS) was then administered, at 2% in water for five days, followed by two weeks with water only. This cycle was repeated thrice. At +10 days from the last DSS administration, the Inventors proceeded with the treatment with 20 mg/kg EM127 and/or 20 mg/kg Irinotecan, or with the carrier alone, intraperitoneally, for a total of 14 days.
# [10] = system: HGC-27 gastric cancer cells; test: Cell viability (WST-1); format: cell-based, human
# Experimental: as §1, §2
# KATO III cells = test: Cell viability (WST-1); format: cell-based, human; conditions: FIG. 7; EM127 alone; low SMYD3 protein levels
# Experimental: as §1, §2
# MDA-MB-468 cells = test: Cell viability (WST-1); format: cell-based, human; conditions: FIG. 7; EM127 alone; low SMYD3 protein levels
# Experimental: as §1, §2
# [11] = system: PANC1 pancreatic cancer cells; test: Cell viability (WST-1); format: cell-based, human
# Experimental: as §1, §2
# [12] = system: SW480 colorectal cancer cells; test: Cell viability (WST-1); format: cell-based, human
# Experimental: as §1, §2
# N87 gastric cancer cells = test: Cell viability (WST-1); format: cell-based, human
# Experimental: as §1, §2
# [13] = system: Caco2 colorectal cancer cells; test: Cell viability (WST-1); format: cell-based, human; conditions: FIG. 1A; EM127 72 h + Oxaliplatin, 5-Fluorouracil or Irinotecan 10 μM for the last 24 h; vs chemotherapeutic compound alone
# Experimental: as §1, §2
# AGS gastric cancer cells [14] = test: Cell viability (WST-1); format: cell-based, human
# Experimental: as §1, §2
# [15] = system: MDA-MB-231 breast cancer cells; test: Cell viability (WST-1); format: cell-based, human; conditions: FIG. 4; EM127 + chemotherapeutic compounds (Paclitaxel 10 μM, Oxaliplatin 10 μM, Doxorubicin 1 μM)
# Experimental: as §1, §2
# [16] = system: colorectal cancer stem cells; test: Migration assay (Boyden chamber); format: cell-based, human; conditions: FIG. 3B; EM127 + Oxaliplatin, 5-Fluorouracil or Irinotecan 10 μM
# From the text: as §5
# To assess cell motility, colorectal cancer tumorspheres were suspended in 200 μl non-supplemented stem cell culture medium and plated in the top section of a Boyden culture chamber, which is separated from the bottom part by a polycarbonate membrane allowing cells to migrate. The underlying section contains 600 μl of stem cell medium supplemented with 20 ng/ml EGF and 10 ng/ml basic FGF and chemotherapeutic compounds.
# HR-deficient cell lines = conditions: previously described; cited from earlier work
# [17] = single-compound treatment, 72 h, increasing concentrations
# [18] = EM127 72 h + 5-Fluorouracil 10 μM last 24 h
# [19] = EM127 72 h + Irinotecan 10 μM last 24 h
# [20] = EM127 72 h + Oxaliplatin 10 μM last 24 h
# [21] = FIG. 4, EM127 + chemotherapeutic compounds (Paclitaxel 10 μM, Oxaliplatin 10 μM, Doxorubicin 1 μM)
# [22] = FIG. 6C, EM127 + Olaparib 10 μM, 72 h, vs single compound
compound,measurement,setting,value
"O=c1[nH]cc(F)c(=O)[nH]1 [5-Fluorouracil, reference compound]",reduction of cell viability,HT29 cells; [17],about 50%
same,reduction of cell viability,HCT116 cells [1]; [17],about 50%
O=C(NC1CCN(C(=O)CCl)CC1)c1cc(C2CC2)on1 [EM127],synergistic effect,MCF7 breast cancer cells; EM127 + Doxorubicin,higher than 1
same,synergistic effect,MCF7 breast cancer cells; EM127 + Paclitaxel,higher than 1
same,synergistic effect,AGS gastric cancer cells [2]; EM127 + Doxorubicin,higher than 1
same,synergistic effect,AGS gastric cancer cells [2]; EM127 + Paclitaxel,higher than 1
same,synergistic effect,[3]; EM127 + Doxorubicin,higher than 1
same,synergistic effect,[3]; EM127 + Paclitaxel,higher than 1
same,cell viability,[4],synergistic effect
same,cell death,"[5]; FIG. 6A, B, EM127 + Olaparib 10 μM, vs single compound",increase of cell death
same,cell viability by HR status,"[5]; FIG. 6C, combined treatment EM127 + Olaparib 10 μM",reduction of cell viability only for HR-proficient cell lines
same,ability to form colonies,[6],synergistic effect
same,dead (apoptotic) cell percentage,HCT116 cells [7],increased
same,live and dead cells by immunofluorescence,[8],synergy
same,number of tumors at the level of the colon,[9],reduces the number of tumors
same,reduction of cell viability,HT29 cells; [18],about 50%
same,reduction of cell viability,HT29 cells; [19],about 50%
same,reduction of cell viability,HT29 cells; [20],about 50%
same,cell viability,[10]; [21],synergistic effect
same,cell viability,[10]; [22],reduction of cell viability
same,cell viability,"[10]; FIG. 10, EM127 + Rucaparib",synergistic effect
same,cell viability,KATO III cells,absence of effect
same,cell viability,MDA-MB-468 cells,absence of effect
same,cell viability,[11]; [22],reduction of cell viability
same,cell viability,"[11]; FIG. 10, EM127 + Rucaparib",synergistic effect
same,cell viability,"[12]; FIG. 1A, EM127 72 h + Oxaliplatin, 5-Fluorouracil or Irinotecan 10 μM for the last 24 h, vs chemotherapeutic compound alone",reduces cell viability with a greater effect
same,cell viability,"[12]; FIG. 6C, EM127 + Olaparib 10 μM, 72 h, vs single compound, cell line printed SW80",reduction of cell viability
same,cell viability,"[12]; FIG. 10, EM127 + Rucaparib",synergistic effect
same,cell viability,N87 gastric cancer cells; [21],synergistic effect
same,cell viability,N87 gastric cancer cells; [22],reduction of cell viability
same,cell viability,"N87 gastric cancer cells; FIG. 10, EM127 + Rucaparib",synergistic effect
same,cell viability,[13],reduces cell viability with a greater effect
same,reduction of cell viability,HCT116 cells [1]; [18],about 50%
same,reduction of cell viability,HCT116 cells [1]; [19],about 50%
same,reduction of cell viability,HCT116 cells [1]; [20],about 50%
same,cell viability,AGS gastric cancer cells [14]; [22],reduction of cell viability
same,cell viability,"AGS gastric cancer cells [14]; FIG. 10, EM127 + Rucaparib",synergistic effect
same,cell viability,[15],synergistic effect
same,ability to migrate,[16],synergistic effect
"CCc1c2c(nc3ccc(OC(=O)N4CCC(N5CCCCC5)CC4)cc13)-c1cc3c(c(=O)n1C2)COC(=O)[C@]3(O)CC [Irinotecan, reference compound]",reduction of cell viability,HT29 cells; [17],about 50%
same,reduction of cell viability,HCT116 cells [1]; [17],about 50%
O=C(c1cc(Cc2n[nH]c(=O)c3ccccc23)ccc1F)N1CCN(C(=O)C2CC2)CC1 [Olaparib],sensitivity to treatment with Olaparib alone,HR-deficient cell lines,sensitive
"N[C@@H]1CCCC[C@H]1N.[Pt+2] [Oxaliplatin, reference compound]",reduction of cell viability,HT29 cells; [17],about 50%
same,reduction of cell viability,HCT116 cells [1]; [17],about 50%
